Source: article PMC4607650 (Bioorganic & medicinal chemistry letters, 2015)
Entries after “also recorded” stand apart in the source; their conditions may differ. Blank lines part the entries; values can stand above or below the compound they belong to.

Columns and labels:
P2Y14R-CHO cells = biological target: T1, P2Y14R-CHO cells (Homo sapiens, UniProt Q15391); experiment: confocal fluorescence microscopy labeling of P2Y14R-CHO cells by 11; type: cell-based
T1 sequence (Q15391 1-338): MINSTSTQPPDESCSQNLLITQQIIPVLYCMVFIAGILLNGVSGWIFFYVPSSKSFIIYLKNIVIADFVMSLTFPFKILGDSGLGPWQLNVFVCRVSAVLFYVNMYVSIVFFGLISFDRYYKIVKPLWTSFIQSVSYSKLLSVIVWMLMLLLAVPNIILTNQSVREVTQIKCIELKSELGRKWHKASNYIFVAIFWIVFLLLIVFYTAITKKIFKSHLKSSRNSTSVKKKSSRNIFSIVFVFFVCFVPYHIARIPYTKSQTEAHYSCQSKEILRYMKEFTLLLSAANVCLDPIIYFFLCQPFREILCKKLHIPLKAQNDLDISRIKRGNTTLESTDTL

hP2Y14R [1] = biological target: T2, hP2Y14R (Homo sapiens, UniProt Q15391); experiment: competition for fluorescent binding of tracer 11
T2 sequence (Q15391 1-338): T1 sequence (Q15391 1-338)

hP2Y14R [2] = biological target: T2, hP2Y14R; type: binding
human P2Y14R = biological target: T3, human P2Y14R (Homo sapiens, UniProt Q15391); experiment: inhibition of forskolin-stimulated cAMP accumulation in CHO-P2Y14R cells; type: cell-based; conditions: cAMP EC50 ratio, hP2Y14R-CHO cells
T3 sequence (Q15391 1-338): T1 sequence (Q15391 1-338)

P2Y6R = conditions: read-out: EC50 for activation of the P2Y6R; cited from earlier work

inhibition of fluorescent labeling by 11 (confocal microscopy) (P2Y14R-CHO cells): complete inhibition of binding
inhibition of binding of 11 (FCM, concentration dependence) (hP2Y14R [1]): Nearly complete inhibition
SMILES: O=C(O)c1cc(-c2ccc(C3CCNCC3)cc2)c2ccc(-c3ccc(C(F)(F)F)cc3)cc2c1 [Compound 5, 4-(4-(piperidin-4-yl)-phenyl)-7-(4-(trifluoromethyl)-phenyl)-2-naphthoic acid]

Bmax (hP2Y14R [2]; FCM saturation binding, n=3): 44,400 MESF
level of nonspecific binding (hP2Y14R [2]; FCM, coincubation with up to 200 nM 5): very low
potency enhancement of the fluorescent conjugate versus 47 nM parent (human P2Y14R): 50 fold
SMILES: O=C(COc1ccc(C2=[N+]3C(=Cc4ccc(-c5cccs5)n4[B-]3(F)F)C=C2)cc1)NCCCCCNC(=O)[C@H]1O[C@H](OP(=O)(O)OP(=O)(O)OCC2OC(n3ccc(=O)[nH]c3=O)C(O)C2O)[C@H](O)[C@@H](O)[C@@H]1O (some centres unmarked) [Compound 11]

SMILES: CONc1ccn([C@@H]2O[C@H](COP(=O)(O)OP(=O)(O)OP(=O)(O)OC[C@H]3O[C@@H](n4ccc(=O)[nH]c4=O)[C@@H](O)[C@H]3O)[C@H](O)[C@@H]2O)c(=O)n1 [Compound 12, P^1-(uridine 5′-)-P^3-(N^4-methoxycytidine 5′-)triphosphate]
EC50 (P2Y6R): 12 nM
Ki at P2Y14R relative to EC50 at P2Y6R (hP2Y14R [1]; Ki (FCM, P2Y14R) higher than P2Y6R EC50): about 500 fold

SMILES: S=C=Nc1cccc(NC(=S)NCCCCNC(=S)Nc2cccc(N=C=S)c2)c1 [Compound 13]
inhibition of binding of 11 at hP2Y14R at fixed concentration (hP2Y14R [1]; test ligand at 10 μM, tracer 11 50 nM, FCM): did not show any significant binding; also recorded: No inhibition at 10 μM
